Where a name gives a salt, the structure may show the parent alone. Read-outs that look alike come from different tables or passages of the source.
Columns and labels:
[1] = rcm bond, Grubbs II, 40.0 °C
[2] = from C=CC[C@H](NC(=O)OC(C)(C)C)c1cc(-c2ccncc2NC(=O)[C@H](C)C=C)ccn1; rcm bond; 12-membered ring; Grubbs II/pTsOH; CH2Cl2; 5.2 mM; 40.0 °C
[3] = biological target: purified human Factor XIa (Homo sapiens (Human), UniProt P03951); experiment: biochemical; type: biochemical; details: read-out: Factor XIa Ki
Chain of purified human Factor XIa (P03951 whole entry, looked up): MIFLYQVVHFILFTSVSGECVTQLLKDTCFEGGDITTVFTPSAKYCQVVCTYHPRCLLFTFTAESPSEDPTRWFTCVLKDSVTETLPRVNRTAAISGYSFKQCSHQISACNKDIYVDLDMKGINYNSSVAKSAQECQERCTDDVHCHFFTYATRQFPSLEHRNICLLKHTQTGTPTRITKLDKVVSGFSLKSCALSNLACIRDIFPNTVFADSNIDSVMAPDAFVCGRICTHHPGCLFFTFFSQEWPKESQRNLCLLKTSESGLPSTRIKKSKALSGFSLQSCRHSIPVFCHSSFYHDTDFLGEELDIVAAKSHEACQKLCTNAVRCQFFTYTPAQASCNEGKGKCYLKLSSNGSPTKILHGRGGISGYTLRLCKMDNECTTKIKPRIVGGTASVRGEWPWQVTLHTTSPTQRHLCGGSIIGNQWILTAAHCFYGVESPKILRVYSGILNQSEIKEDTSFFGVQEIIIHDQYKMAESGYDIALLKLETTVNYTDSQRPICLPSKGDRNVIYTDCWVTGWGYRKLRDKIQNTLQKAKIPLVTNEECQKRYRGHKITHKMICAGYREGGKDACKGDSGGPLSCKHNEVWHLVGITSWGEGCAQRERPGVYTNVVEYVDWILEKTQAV
Chain of purified human Factor XIa (P03951 whole entry partner, looked up): as the sequence (P03951 whole entry, looked up) above

[4] = biological target: purified human plasma kallikrein (Homo sapiens (Human), UniProt P03952); experiment: biochemical; type: biochemical; details: read-out: Plasma Kallikrein Ki
Chain of purified human plasma kallikrein (P03952 whole entry, looked up): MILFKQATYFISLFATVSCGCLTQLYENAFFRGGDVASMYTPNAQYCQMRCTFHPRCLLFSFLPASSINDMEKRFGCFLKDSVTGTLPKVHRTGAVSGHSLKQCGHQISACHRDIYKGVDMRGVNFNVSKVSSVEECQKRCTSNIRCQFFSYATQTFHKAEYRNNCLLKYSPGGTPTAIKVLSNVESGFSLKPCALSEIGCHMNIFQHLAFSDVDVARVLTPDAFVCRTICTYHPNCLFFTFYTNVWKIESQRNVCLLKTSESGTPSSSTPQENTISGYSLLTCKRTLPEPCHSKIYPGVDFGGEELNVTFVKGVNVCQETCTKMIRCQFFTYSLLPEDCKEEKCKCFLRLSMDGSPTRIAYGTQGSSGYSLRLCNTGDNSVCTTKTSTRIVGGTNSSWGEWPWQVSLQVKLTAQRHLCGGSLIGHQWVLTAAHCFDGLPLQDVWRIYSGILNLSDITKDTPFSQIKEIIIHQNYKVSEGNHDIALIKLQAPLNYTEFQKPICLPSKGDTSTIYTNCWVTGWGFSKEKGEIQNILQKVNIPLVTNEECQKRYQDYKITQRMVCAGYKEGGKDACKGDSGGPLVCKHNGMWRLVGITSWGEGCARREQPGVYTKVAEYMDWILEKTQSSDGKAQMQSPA
Chain of purified human plasma kallikrein (P03952 whole entry partner, looked up): as the sequence (P03952 whole entry, looked up) above

## COC(=O)Nc1ccc2c(c1)C(=O)NC/C=C/C[C@H](NC(=O)OC(C)(C)C)c1cc-2ccn1
[1]; from C=CCNC(=O)c1cc(NC(=O)OC)ccc1-c1ccnc([C@H](CC=C)NC(=O)OC(C)(C)C)c1, DCM, […], 3.0 h
  ring closure, yield of all isomers: 39.4%

## COC(=O)Nc1ccc2c(c1)NC(=O)[C@H](C)/C=C/C[C@H](NC(=O)OC(C)(C)C)c1nc-2cn1COCC[Si](C)(C)C
[1]; from C=CC[C@H](NC(=O)OC(C)(C)C)c1nc(-c2ccc(NC(=O)OC)cc2NC(=O)[C@H](C)C=C)cn1COCC[Si](C)(C)C, dichloromethane, 9.73 mM, 21.5 h
  ring closure, yield of all isomers: 74%

## C[C@@H]1/C=C/C[C@H](NC(=O)OC(C)(C)C)c2cc(ccn2)-c2ccccc2NC1=O
[1]; from C=CC[C@H](NC(=O)OC(C)(C)C)c1cc(-c2ccccc2NC(=O)[C@H](C)C=C)ccn1, dichloromethane, 11.8 mM, 4.5 h
  ring closure, yield of all isomers: 78%

## C[C@@H]1/C=C/C[C@H](NC(=O)OC(C)(C)C)c2cc(ccn2)-c2ccncc2NC1=O
[2]
  ring closure, yield after HPLC: 7.3%
[1]; from C=CC[C@H](NC(=O)OC(C)(C)C)c1cc(-c2ccncc2NC(=O)[C@H](C)C=C)ccn1, CH2Cl2, 5.06 mM, 24.0 h
  ring closure, yield of all isomers: 7.3%

## C[C@@H]1CCC[C@H](N2CCC(c3c(F)ccc(Cl)c3F)=CC2=O)c2cc(ccn2)-c2cn[nH]c2NC1=O [Example 221, 13-[4-(3-chloro-2,6-difluorophenyl)-6-oxo-1,2,3,6-tetrahydropyridin-1-yl]-9-methyl-4,5,7,15-tetraazatricyclo[12.3.1.0^2,6]octadeca-1(18),2(6),3,14,16-pentaen-8-one, 2TFA salt]
[3]
  Ki: > 417 nM
[4]
  Ki: 1320 nM

From patent publication US9409908B2 (priority 2012, dated 2016)
